Drawing on patent publication US11986532B2 (Arvinas Operations, Inc., priority 2021, dated 2024), this text covers DC50 and Dmax for six compounds.

This assay addresses T1, BCL6 (Homo sapiens, UniProt P41182).
T1 construct: endogenous in cells; host or cells: T47D breast cancer epithelial cells
Briefly: Immunofluorescence protocol for high content imaging of BCL6 (degradation) in T47D cells, 3 days compound treatment. It is filed as cell-based. The note with it: T47D cells, 3 days compound treatment; for DC50: read-out: Mean DC50 (nM)* category; for Dmax: read-out: Mean Dmax (%)** category. In outline: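 Cells are seeded to reach ~70-90% confluence at endpoint, then dosed next day with compound at a final top concentration of 0.1 or 1 μM (11 points, 3-fold). After 3 days, BCL6 is detected by immunofluorescence and quantified by high-content imaging.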

The structures appear in SMILES notation.

For orientation: DC50 means the concentration giving 50% degradation. By Dmax is commonly meant the largest share of the target that was removed. Take `CNC(=O)COc1cc2cc(Nc3nc(N4CCC(CN5CCC6(CCN(c7ccc8c(c7)CN(C7CCC(=O)NC7=O)C8=O)C6)C5=O)CC4)ncc3Cl)ccc2n(C(C)C)c1=O` (stereo not drawn) [Compound 60, 2-{[6-({5-chloro-2-[4-({7-[2-(2,6-dioxopiperidin-3-yl)-1-oxo-2,3-dihydro-1H-isoindol-5-yl]-1-oxo-2,7-diazaspiro[4.4]nonan-2-yl}methyl)piperidin-1-yl]pyrimidin-4-yl}amino)-2-oxo-1-(propan-2-yl)-1,2-dihydroquinolin-3-yl]oxy}-N-methylacetamide]: the DC50 is less than 10 nM and the Dmax is 50 to 70%.

In the case of `CNC(=O)COc1cc2cc(Nc3nc(N4CCC(OC5CCC6(CC5)CN(c5cccc7c5CN(C5CCC(=O)NC5=O)C7=O)C6)CC4)ncc3Cl)ccc2n(C(C)C)c1=O` (stereo not drawn) [Compound 61, 2-{[6-({5-chloro-2-[4-({2-[2-(2,6-dioxopiperidin-3-yl)-1-oxo-2,3-dihydro-1H-isoindol-4-yl]-2-azaspiro[3.5]nonan-7-yl}oxy)piperidin-1-yl]pyrimidin-4-yl}amino)-2-oxo-1-(propan-2-yl)-1,2-dihydroquinolin-3-yl]oxy}-N-methylacetamide], the DC50 is less than 10 nM and the Dmax lay within 50 to 70%.

Consider `CNC(=O)COc1cc2cc(Nc3nc(N4CCC(F)(CN5CCC6(CC5)CCN(c5cccc7c5C(=O)N(C5CCC(=O)NC5=O)C7=O)CC6)CC4)ncc3Cl)ccc2n(C(C)C)c1=O` (stereo not drawn) [Compound 62, 2-{[6-({5-chloro-2-[4-({9-[2-(2,6-dioxopiperidin-3-yl)-1,3-dioxo-2,3-dihydro-1H-isoindol-4-yl]-3,9-diazaspiro[5.5]undecan-3-yl}methyl)-4-fluoropiperidin-1-yl]pyrimidin-4-yl}amino)-2-oxo-1-(propan-2-yl)-1,2-dihydroquinolin-3-yl]oxy}-N-methylacetamide], for which the half-maximal degradation concentration (DC50) is less than 10 nM and the Dmax is no less than 70%.

As to `CNC(=O)COc1cc2cc(Nc3nc(N4CCC5(CCN(CC6(F)CCN(c7cccc8c7C(=O)N(C7CCC(=O)NC7=O)C8=O)CC6)CC5)CC4)ncc3Cl)ccc2n(C(C)C)c1=O` (stereo not drawn) [Compound 63, 2-{[6-({5-chloro-2-[9-({1-[2-(2,6-dioxopiperidin-3-yl)-1,3-dioxo-2,3-dihydro-1H-isoindol-4-yl]-4-fluoropiperidin-4-yl}methyl)-3,9-diazaspiro[5.5]undecan-3-yl]pyrimidin-4-yl}amino)-2-oxo-1-(propan-2-yl)-1,2-dihydroquinolin-3-yl]oxy}-N-methylacetamide], the DC50 lay within 10 to 50 nM and the Dmax was 50 to 70%.

In the case of `CNC(=O)COc1cc2cc(Nc3nc(N4CCC(CN5CCC6(CC5)CN(c5cc7c(cc5F)C(=O)N(C5CCC(=O)NC5=O)C7)C6)CC4)ncc3Cl)ccc2n(C(C)C)c1=O` (stereo not drawn) [Compound 64, 2-{[6-({5-chloro-2-[4-({2-[2-(2,6-dioxopiperidin-3-yl)-6-fluoro-1-oxo-2,3-dihydro-1H-isoindol-5-yl]-2,7-diazaspiro[3.5]nonan-7-yl}methyl)piperidin-1-yl]pyrimidin-4-yl}amino)-2-oxo-1-(propan-2-yl)-1,2-dihydroquinolin-3-yl]oxy}-N-methylacetamide], the DC50 was less than 10 nM and the maximal degradation (Dmax) lay in the range of 50 to 70%.

`CNC(=O)COc1cc2cc(Nc3nc(N4CCC(CN5CCC6(CC5)CN(c5ccc7c(c5)C(=O)N(C5CCC(=O)NC5=O)C7=O)C6=O)CC4)ncc3Cl)ccc2n(C(C)C)c1=O` (stereo not drawn) [Compound 65, 2-{[6-({5-chloro-2-[4-({2-[2-(2,6-dioxopiperidin-3-yl)-1,3-dioxo-2,3-dihydro-1H-isoindol-5-yl]-1-oxo-2,7-diazaspiro[3.5]nonan-7-yl}methyl)piperidin-1-yl]pyrimidin-4-yl}amino)-2-oxo-1-(propan-2-yl)-1,2-dihydroquinolin-3-yl]oxy}-N-methylacetamide]: the DC50 is no less than 100 nM and the Dmax was no less than 70%.
